Source: article PMC10321640, “The VIPR2-selective antagonist KS-133 changes macrophage polarization and exerts potent anti-tumor effects as a single agent and in combination with an anti-PD-1 antibody” (PLOS ONE, 2023)
Where a SMILES comes first, the peptide text is derived from it. Bridges are numbered along the chain shown (N, C = ends).

Legend:
[1] = In vivo pharmacokinetic study, plasma LC-MS/MS; details: mouse, iv, 1 nmol/g body weight, male ICR mice, mean ± SD
Text: These animal experiments were approved by the Animal Care and Use Committee of Osaka University (approval No. Douyaku 30-3-2) and conducted at Osaka University in accordance with the aforementioned guidelines. LC–MS/MS data were obtained using an LCMS-8060NX MS system (Shimadzu Corp., Kyoto, Japan) connected to a Nexera X3 UHPLC system (Shimadzu) equipped with a Peptide BEH C18 column (1.7 μm, 2.1 × 50 mm, Waters Corp., Milford, MA, USA). Mobile phase A was 0.1% formic acid in water, and mobile phase B was acetonitrile. The elution profile of mobile phase B was 5% isocratic between 0 to 1 min, linear gradient from 5% to 50% between 1 to 1.5 min, and increase from 50% to 75% between 1.5 to 3 min. The flow rate was 0.2 mL/min. For pharmacokinetic studies, free or nanoformulated KS-133 was administered intravenously or subcutaneously to male ICR mice at 1 nmol/g body weight. Serial blood samples were collected from the tail vein using heparinized capillary tubes at the indicated times after administration. The plasma (5 μL) obtained from each blood sample was mixed with 10 μL of 0.1% formic acid in 50% (v/v) acetonitrile/water, and subsequently, 50 μL of acetonitrile was added. After centrifugation, aliquots (50 μL) of the supernatant were mixed with equal volumes of 0.2% formic acid in water and then injected into the LC–MS/MS system. Pharmacokinetic parameters were obtained from the plasma concentration–time data by non-compartmental analysis using Phoenix WinNonlin Software (Certara Companies, NJ, USA).
Fig 4 Pharmacokinetic study of KS-133 and KS-133 NPs in mice. Concentration of peptides in plasma at indicated time points after administration of peptide with or without nanoformulation are presented. (A) Intravenous administration of KS-133 (n = 3, 1 nmol/g, mean ± SD). (B) Subcutaneous administration of KS-133 and KS-133 NPs (n = 5, 1 nmol/g, mean ± SD). (C) Blood samples were collected at the indicated times. The concentration of KS-133 in plasma was determined by LC–MS/MS (mean ± SD, *p < 0.05 by Student’s t-test). The pharmacokinetic parameters Cmax (μM), tmax (h), t1/2 (h), AUC0-t (μmol·h/L), AUC0-inf,pred (μmol·h/L), and MRTinf,pred (h) were calculated as described in the “Materials and methods” section. […]

[2] = cited from earlier work
Text: Vasoactive intestinal peptide receptor 2 (VIPR2) is a class-B G protein-coupler receptor that participates in various physiological function by interacting with its ligand vasoactive intestinal peptide (VIP). VIP–VIPR2 signaling has attracted attention as a drug target in the fields of central nervous system diseases, oncology, and immunity. In 2021, we generated 13-mer bicyclic peptide KS-133 as a potent and selective antagonist to VIPR2 [1]. […] Generally, peptides are rapidly degraded by proteases, and even if they are resistant to degradation, they are prematurely excreted from the body via renal filtration. Thus, frequent dosing is needed, reducing patients’ quality of life. KS-133 is stable in plasma for at least 24 h. Unfortunately, daily dosing is required for the anti-tumor effects of KS-133 in vivo. A versatile method for improving the pharmacokinetics of peptides is conjugation with polyethylene glycol, but this req ...

Compound: CC[C@H](C)[C@H](NC(=O)[C@H](CC(C)C)NC(=O)[C@@H]1CC(=O)NCCCC[C@@H]2NC(=O)[C@@H]3CCCN3C(=O)[C@H](CC(C)C)NC(=O)[C@H](Cc3ccc(O)cc3)NC(=O)[C@@H]3CCCN3C(=O)[C@@H]3CCCN3C(=O)[C@@H](NC(C)=O)CSSC[C@H](NC(=O)[C@H](CC(C)C)NC(=O)[C@H](Cc3ccc(O)cc3)NC2=O)C(=O)N1)C(N)=O [KS-133] (Ac-CPPYLPKYLCDLI-NH2; disulfide 1-10; lactam 7-11)
- AUC(0-inf) ([1]; i.v., n = 3, read-out: AUC0-inf, pred): 10.1 ± 1.73 µM·h
- MRT ([1]; i.v., n = 3, read-out: MRTinf, pred): 58.8 ± 6.6 min
- half-life ([1]; i.v., non-compartmental, n = 3, read-out: t1/2 (elimination half-life from plasma) (converted)): 40.8 min
- AUC(0-t) ([1]; n = 3): 7.51 ± 1.77 µM·h
- protease degradation [2]: resistant to protease degradation
- time stable in plasma ([2]; plasma): at least 24 h
